In data set [1] the test system is erythrocytes. As to the kind of experiment: Erythrocyte hemolysis assay (H2O2). The class given is cell-based. As to conditions: human erythrocytes, H2O2, 37° C., 30 min. As to the method: (§1) The antioxidant activity of Microsan from Microbacterium sp. strain BS-2 and Brevisan from Brevibacillus sp. strain BS-207 in cell free system was measured by its inhibitory activity on the generation of DPPH free radicals, superoxide anions (O^2−), lipid peroxidation and erythrocyte hemolysis. The DPPH free radical scavenging assay was performed using 2,2-diphenyl-1-picrylhydrazyl (DPPH) free radical scavenging method [Ara. N. and Hasan, N. (2009) Res. J. Med. Medical Sci. 4, 107-110]. Different concentrations of Microsan and Brevisan were mixed individually with 150 μl of 160 μM methanolic solution of DPPH and incubated at 35° C. for 30 min in dark. The effective concentration (EC50) was calculated by measuring the absorbance of the samples at 517 nm. The superoxide anion scavenging was measured using phenazine methosulfate-nicotinamide adenine dinucleotide (PMS/NADH) method as previously described [Liu, F., Ooi, V. E. and Chang, S. T. (1997) Life Sci. 60, 763-771]. The lipid peroxidation assay was performed using the previously described method [Zhang, Q., Yu, P., Li, Z., Zhang, H., Xu, Z. and Li, P. (2003) J. Appl. Phycol. 15, 305-310] which is based on measuring the lipid peroxide decomposed product malondialdehyde (MDA). […] Samples were incubated at 37° C. for 30 min and the absorbance was measured at 540 nm. […]

Data set [2] can be described thus: Superoxide anion scavenging (PMS/NADH method). The class given is biochemical. The note with it: cell free. On the procedure:
as §1

The nature of data set [3]: Critical micelle concentration. The class given is physicochemical. As to the method:
The bacterial strains producing biosurfactants were isolated from the petroleum-contaminated soil sample collected from Mupkal, Nizamabad, Andhra Pradesh, India (latitude 18.90° N and longitude 78.36° E). The soil sample was enriched by placing 1.0 g of soil sample in 100 ml of mineral salts medium supplemented with N-hexadecane (1%, v/v) as a sole carbon source for three weeks. The enriched sample was serially diluted and then plated on the mineral salts agar plates overlaid with N-hexadecane which acted as a sole carbon source. The colonies that appeared on the plates upon incubation at 37° C. for 72 h were purified for 2-3 times on nutrient agar plates. The isolated pure microorganisms were cultured in liquid mineral salts medium at 37° C. for 72 h. The cells were separated by centrifugation and the cell-free supernatant was measured for the reduction in surface tension values by Wilhelmy plate method using a Du-Nouy K100MK2 Processor Tensiometer (Krüss, Hamburg, Germany). The concentration series was generated automatically with a computer-controlled Dosimat (Metrohm AG, Switzerland). […] The critical micelle concentration (CMC) was measured by plotting the concentration of surfactant as a function of surface tension, and the CMC was taken as the point where the slope of the curve abruptly changed. […]

Data set [4] can be described thus: DPPH free radical scavenging assay (cell free). As to conditions: 35° C., 30 min. Format: biochemical. As to the method:
as §1
On the technique in general: The DPPH test is a chemical assay of radical scavenging.

For data set [5], the system named is RAW 264.7 macrophages. In words: In vitro MTT assay, proliferation of RAW 264.7 macrophages. Format: cell-based, mouse. The note with it: 200 μg ml-1, 48 h.
Experimental: The effect of Brevisan, Microsan and M-EPS-Au-NP on the proliferation of RAW 264.7 macrophages (ATCC No. CRL-2278) was measured by in vitro MTT assay using the previously described method [Mosmann, T. (1983) J. Immunol. Methods 65, 55-63], which is based on the cell-mediated reduction of tetrazolium salt to form water insoluble formazan crystals. The MTT assay was performed with different concentrations (1-200 μg ml-1) of Brevisan, Microsan and M-EPS-Au-NP were incubated for 48 h using laminarin as a control.
Data set [6] in a line: Interfacial tension, Du-Nouy ring method. Format: physicochemical. On the procedure:
The surface tension of the purified Microsan from Microbacterium sp. strain BS-2 and Brevisan from Brevibacillus sp. strain BS-207 was measured by Wilhelmy plate method using a Du-Nouy K100MK2 Processor Tensiometer (Krüss, Hamburg, Germany) which reduced the surface tension of water from 72 to 31.2 mN m^−1. The interfacial tension value was measured by Du-Nouy ring method and it was determined as 25.7 mN m. The critical micelle concentration (CMC) was measured by plotting the concentration of EPS as a function of surface tension. The CMC is the point where the slope of the curve abruptly changed was determined as 75 mg l^−1. The emulsification index (EI24) was determined by the addition of 4 ml of culture supernatant to 6 ml of various hydrocarbons (N-Hexadecane, tridecane, hexane, toluene and xylene) and oils (mineral oil and soybean oil) and the mixtures were vortexed for 2 min and allowed to stand for 24 h. The emulsification index (EI24) values expressed as the percentage of height of emulsified layer to the height of total liquid column.

As to “β-D-glucuronyl-(1-2)-D-mannosyl-(1-4)-D-glucose [Microsan]”, in data set [1], the “EC50 erythrocyte hemolysis inhibition” value came to 139.28 µg/mL. For the same substance, the “EC50 superoxide anions (O^2−) scavenging” value in data set [2] came out at 24.48 µg/mL. Besides, in data set [3], the “critical micelle concentration (CMC)” value came out at 75 mg/L. For the same substance, the “EC50 DPPH free radical scavenging” value in data set [4] is 40.78 µg/mL. For the same substance, the “cell proliferation (MTT)” value in data set [5] is on record as 89.07%. The substance also displayed an interfacial tension in data set [6] of 25.7 mN m.

The record behind these values is US10106627B2, “Process for the preparation of polymeric biosurfactants” (priority 2014, dated 2018).
